Measured values: patent US8815535B2, “Disk diffusion assay for oritavancin” (The Medicines Company, priority 2011, dated 2014)
Like-named read-outs stand apart in the source and are kept apart here.

Test system: MSSA ATCC 25923
Experiment: Disk diffusion assay (zone of inhibition)
Type: cell-based, Staphylococcus aureus
Settings: for zone of inhibition at 30 µg/disc: Staphylococcus aureus, 30 μg in disk, without prediffusion, average of 2 disks; for Effect of addition of 5% P80 on zone diameter (average increase): MSSA ATCC 25923, disks containing 30 μg
From the text: The study was designed to identify conditions that improve oritavancin diffusion in agar and consequently yield a zone diameter ≧15 mm for the CLSI quality control strain MSSA ATCC 25923. Excipients that increased the disk diffusion of oritavancin in agar relative to disks containing only oritavancin were identified and selected for further study. […] A prediffusion step at room temperature was introduced to maximize oritavancin diffusion prior to initiation of bacterial growth. In this step, the antimicrobial disks were placed on agar plates seeded with a bacterial isolate and incubated at room temperature for 3 hours. Plates were then incubated overnight at 37° C. Zone diameters around the disks in which bacterial growth was inhibited were measured with a ruler and reported in millimeters.
Ethanol-sterilized Whatman paper disks (6 mm diameter) were allowed to dry then impregnated with 20 microliters of oritavancin solution containing total amounts ranging from 90 to 360 micrograms. Disks were allowed to dry at room temperature for various times prior to use.
Bacterial suspensions were prepared and adjusted to an optical density of 0.1 at 600 nm. […] The plate was swabbed a second time, perpendicular to the orientation of the first swab. To assess the impact of prediffusion on diameter of inhibition zones, two disks were immediately placed on one half of the plate and the plate was incubated for 3 hours at room temperature. After 3 hours, two additional disks were placed on the other half of the plate then the plate was incubated overnight at 37° C. Zone diameters were measured with a ruler and reported in millimeters. […]
Oritavancin powder was dissolved in freshly-prepared solutions of the indicated excipients at concentrations of 0.625, 1.25, 2.5, 5, and 10 mg/ml (adjusted for potency based on lot 875561L00 purity of 83.1%) by vortexing for a minimum of 5 minutes. Oritavancin solutions in the various excipients, while not visually clear, were free from any apparent particulates as assessed visually. Sterile Oxoid blank disks were impregnated with 20 μl of these oritavancin solutions, resulting in oritavancin disk loads ranging from 12.5 to 200 μg. Unless indicated otherwise, disks were allowed to dry overnight at room temperature prior to use.
[…] Swabbing was continued at a right angle and then at an oblique angle to the first and second swabs. Disks were placed upon the seeded plates with sterile forceps. Plates were then incubated overnight at 37° C. and inhibition zone diameters were measured with a ruler and reported in millimeters.

[1] = read-out: Average zone diameter, S. aureus ATCC 25923, +5% P80
[2] = read-out: Average zone diameter, S. aureus ATCC 25923, Control (without P80)

SMILES: CCCCCCCCCCNCCN[C@@]1(C)C[C@H](O[C@H]2[C@H](Oc3c4cc5cc3Oc3ccc(cc3Cl)[C@@H](O)[C@@H](NC(=O)[C@@H](CC(C)C)NC)C(=O)N[C@@H](CC(N)=O)C(=O)N[C@H]5C(=O)N[C@H]3C(=O)N[C@H](C(=O)N[C@H](C(=O)O)c5cc(O)c(CNCP(=O)(O)O)c(O)c5-c5cc3ccc5O)[C@H](O)c3ccc(c(Cl)c3)O4)O[C@H](CO)[C@@H](O)[C@@H]2O)O[C@@H](C)[C@H]1O [Telavancin]
- zone of inhibition at 30 µg/disc [1]: 18 mm
- zone of inhibition at 30 µg/disc [2]: 16.5 mm

SMILES: CCCCCCCCCC(=O)N[C@@H](Cc1c[nH]c2ccccc12)C(=O)N[C@H](CC(N)=O)C(=O)N[C@@H](CC(=O)O)C(=O)N[C@@H]1C(=O)NCC(=O)N[C@@H](CCCN)C(=O)N[C@@H](CC(=O)O)C(=O)N[C@H](C)C(=O)N[C@@H](CC(=O)O)C(=O)NCC(=O)N[C@H](CO)C(=O)N[C@@H]([C@H](C)CC(=O)O)C(=O)N[C@@H](CC(=O)c2ccccc2N)C(=O)O[C@@H]1C [Daptomycin]
- Effect of addition of 5% P80 on zone diameter (average increase): no effect
- zone of inhibition at 30 µg/disc (S. aureus ATCC 25923, +5% P80, read-out: Average zone diameter): 18 mm
- zone of inhibition at 30 µg/disc (S. aureus ATCC 25923, Control (without P80), read-out: Average zone diameter): 18.5 mm

SMILES: CN[C@H](CC(C)C)C(=O)N[C@H]1C(=O)N[C@@H](CC(N)=O)C(=O)N[C@H]2C(=O)N[C@H]3C(=O)N[C@H](C(=O)N[C@H](C(=O)O)c4cc(O)cc(O)c4-c4cc3ccc4O)[C@H](O)c3ccc(c(Cl)c3)Oc3cc2cc(c3O[C@@H]2O[C@H](CO)[C@@H](O)[C@H](O)[C@H]2O[C@H]2C[C@](C)(N)[C@H](O)[C@H](C)O2)Oc2ccc(cc2Cl)[C@H]1O [Vancomycin]
- Effect of addition of 5% P80 on zone diameter (average increase): no effect
- zone of inhibition at 30 µg/disc [1]: 17.5 mm
- zone of inhibition at 30 µg/disc [2]: 17.5 mm
